Consider one compound from patent publication US6509325B1, “Method for inhibiting melanogenesis and uses thereof” (priority 2000, dated 2003).

The subject of test [1] is C. neoformans strain 24067. Kind of test: Survival of BALB/c mice infected with C. neoformans. Format: in vivo. Particulars: for survival advantage: oral. On the procedure:
(§1) Cryptococcus neoformans cells were collected as described above. BALB/c mice (National Cancer Institute (NCI), Bethesda, Md.), 6-8 weeks old, were injected intravenously (i.v.) by the tail veins with 1×10^6 organisms. […] In experiment A, uninfected control mice were injected with glyphosate at the same time intervals. […] Forty-four days after infection, the A/J Cr mice were killed, and the lungs were isolated and homogenized in 5 ml of PBS. 100 μl of 1/100 and 1/1000 dilutions of the homogenates in PBS were then plated on Sab agar. Colony-forming units (CFUs) were determined after incubation of the plates at 30° C. for 48 h (1 colony=1 CFU). […] Control mice were injected with PBS instead of glyphosate.
Data analysis was performed using SPSS version 8. Student's T-test and Kaplan-Meier survival analysis were utilized.

For test [2], the system named is C. neoformans. Kind of test: Lung CFUs in A/J Cr mice infected with C. neoformans. Conditions: 1 mg glyphosate i.p. at 24, 48, 72 h, 44 days after infection, n=13, controls 9.63±0.21, p=0.004. It is filed as in vivo. As to the method:
as §1

The subject of test [3] is melanization in C. neoformans. Briefly: Effect of sub-inhibitory glyphosate on melanization of C. neoformans cultures with L-dopa. Conditions: 1 mM L-dopa; for Melanization: control without glyphosate day 7. Format: cell-based, Cryptococcus neoformans. As to the method:
Positive melanin controls were cultures containing L-dopa without glyphosate; negative controls were cultures lacking both L-dopa and glyphosate. All cultures were grown in duplicate. The cultures were examined visually for melanization. The growth rate of the cells in each culture was determined by counting, with a hemocytometer, the number of cells per ml at various times after the initiation of the culture.

The subject of test [4] is Cryptococcus neoformans serotype D strain 24067. Briefly: Glyphosate inhibition of C. neoformans growth (turbidity, 96-well plates). Particulars: after 72 h of incubation, 30° C., Sab, visual turbidity. It is filed as cell-based. On the procedure: Cryptococcus neoformans serotype D strain 24067 was obtained from the American Type Culture Collection (Rockville, Md.), and grown overnight at 30° C. with shaking in Sabouraud dextrose media (Sab) obtained from Difco Laboratories (Detroit, Mich.). Cells were collected and washed three times with phosphate-buffered saline (PBS: 0.137 M NaCl and 0.003 M sodium phosphate; pH 7.4). A suspension of 250 organisms per 1 ml of Sab was made. Glyphosate was obtained from the Sigma Chemical Co. (St. Louis, Mo.). […] Each concentration was tested in triplicate. The plates were incubated at 30° C., and growth was assayed visually for turbidity after 72 h.

In test [5] the test system is autopolymerization of L-dopa to melanin. Kind of test: Autopolymerization of L-dopa to melanin (spectrophotometry). On the procedure:
In solution, L-dopa slowly autopolymerizes to form melanin [20]. […] The samples were left on the benchtop at room temperature. An Ultraspec 2000 spectrophotometer (Pharmacia Biotech, Cambridge, England) was used to assess absorption at 270λ after 3 days and 20 days. […] A freshly-prepared solution of the same concentrations was tested for comparison.

Molecules are shown by their SMILES. A value given as a limit tells only on which side of the number the result lay.

`O=C(O)CNCP(=O)(O)O` [glyphosate, N-phosphonomethylglycine] returned a Mean survival in test [1] (0.75 mg/day glyphosate i.p. protocol, control 20.4±1.31 days, p=0.049) of 26.8 ± 3.55 days. The “Mean survival time and standard deviation by Kaplan-Meier analysis” value in test [1] (1.5 mg/day glyphosate i.p. for three days, control 15.9±1.57 days, p=0.001) is 25.7 ± 2.36 days. Besides, the survival advantage result in test [1] (ad lib water containing 2 mg/ml glyphosate) and in test [1] (ad lib water containing 10 mg/ml glyphosate) was “no survival advantage” in each case. Moreover, the “Log10 CFUs from lung homogenates” value in test [2] was found to be 8.62±1.12. Moreover, the “Melanization” value in test [3] (62.5 μg/ml glyphosate) was determined as 10 days; in test [3] (125 μg/ml glyphosate), 13 days; in test [3] (250 μg/ml glyphosate) it was 15 days. For the same compound, in test [3] (grown 10 days in minimal media, 62.5 μg/ml glyphosate), the “melanization state of culture” value was “heavily melanized”. Moreover, in test [4], the “concentrations of glyphosate at which growth inhibition was observed” value is above 250 µg/mL. Further, the “concentrations of glyphosate at which no growth inhibition was observed” value in test [4] is below 250 µg/mL. Also, the absorption value in test [5] (0.12 μg/ml glyphosate, 1 mM L-dopa, day 3, 270λ, control without compound 0.425) stood at 0.359. In addition, the “concentration of glyphosate at which an absorption signal could be detected” value in test [5] (day 3, 1 mM L-dopa, room temperature, 270λ) amounted to 39 µg/mL. Further, the “concentrations of glyphosate that continued to inhibit melanin formation” value in test [5] (day 20, 1 mM L-dopa, room temperature) is at least 31.3 µg/mL.
